From patent US10550112B2, “Pyrimidines as EGFR inhibitors and methods of treating disorders” (Dana-Farber Cancer Institute, Inc., priority 2015, dated 2020)

Tests used:
Format in all cases: cell-based, Murine
[1] = biological target: EGFR wild type Ba/F3 cell line (Homo sapiens, UniProt P00533, cells depend on it, form not given); experiment: Ba/F3 cell proliferation MTS assay, EGFR wild type; settings: 72 hours
[2] = biological target: EGFR InsGY Ba/F3 cell line (Homo sapiens, UniProt P00533, DELINS770-770GY, cells depend on it); experiment: Ba/F3 cell proliferation MTS assay, EGFR InsGY; settings: EGFR InsGY (D770delinsGY) Ba/F3 cells, 72 hours
Procedure: (§1) Different EGFR exon 20 insertion mutations were introduced via site directed mutagenesis into full length EGFR using the Quick Change Site-Directed Mutagenesis kit (Stratagene; La Jolla, Calif.) according to the manufacturer's instructions. All constructs were confirmed by DNA sequencing. The constructs were shuttled into the retroviral vector JP1540 using the BD Creator™ System (BD Biosciences). […] Stable clones were obtained by selection in puromycin (2 μg/ml) and growth in IL-3 free media.
(§2) Murine Ba/F3 cells engineered to express mutant and wild type EGFR or HER2 protein were used to perform single drug screens. Cell viability was assessed after 72 hours of compound exposure using the colorimetric cell proliferation MTS assay kit (Promega).
(§3) The curves were fitted using a non-linear regression model with a sigmoidal dose response.

[3] = biological target: EGFR InsSVD Ba/F3 cell line (Homo sapiens, UniProt P00533, DUP768-770, cells depend on it); experiment: Ba/F3 cell proliferation MTS assay, EGFR InsSVD; settings: EGFR InsSVD (D770_N771insSVD) Ba/F3 cells, 72 hours
Chain of EGFR InsSVD Ba/F3 cell line (P00533 with tags, fused parts or gaps DUP768-770): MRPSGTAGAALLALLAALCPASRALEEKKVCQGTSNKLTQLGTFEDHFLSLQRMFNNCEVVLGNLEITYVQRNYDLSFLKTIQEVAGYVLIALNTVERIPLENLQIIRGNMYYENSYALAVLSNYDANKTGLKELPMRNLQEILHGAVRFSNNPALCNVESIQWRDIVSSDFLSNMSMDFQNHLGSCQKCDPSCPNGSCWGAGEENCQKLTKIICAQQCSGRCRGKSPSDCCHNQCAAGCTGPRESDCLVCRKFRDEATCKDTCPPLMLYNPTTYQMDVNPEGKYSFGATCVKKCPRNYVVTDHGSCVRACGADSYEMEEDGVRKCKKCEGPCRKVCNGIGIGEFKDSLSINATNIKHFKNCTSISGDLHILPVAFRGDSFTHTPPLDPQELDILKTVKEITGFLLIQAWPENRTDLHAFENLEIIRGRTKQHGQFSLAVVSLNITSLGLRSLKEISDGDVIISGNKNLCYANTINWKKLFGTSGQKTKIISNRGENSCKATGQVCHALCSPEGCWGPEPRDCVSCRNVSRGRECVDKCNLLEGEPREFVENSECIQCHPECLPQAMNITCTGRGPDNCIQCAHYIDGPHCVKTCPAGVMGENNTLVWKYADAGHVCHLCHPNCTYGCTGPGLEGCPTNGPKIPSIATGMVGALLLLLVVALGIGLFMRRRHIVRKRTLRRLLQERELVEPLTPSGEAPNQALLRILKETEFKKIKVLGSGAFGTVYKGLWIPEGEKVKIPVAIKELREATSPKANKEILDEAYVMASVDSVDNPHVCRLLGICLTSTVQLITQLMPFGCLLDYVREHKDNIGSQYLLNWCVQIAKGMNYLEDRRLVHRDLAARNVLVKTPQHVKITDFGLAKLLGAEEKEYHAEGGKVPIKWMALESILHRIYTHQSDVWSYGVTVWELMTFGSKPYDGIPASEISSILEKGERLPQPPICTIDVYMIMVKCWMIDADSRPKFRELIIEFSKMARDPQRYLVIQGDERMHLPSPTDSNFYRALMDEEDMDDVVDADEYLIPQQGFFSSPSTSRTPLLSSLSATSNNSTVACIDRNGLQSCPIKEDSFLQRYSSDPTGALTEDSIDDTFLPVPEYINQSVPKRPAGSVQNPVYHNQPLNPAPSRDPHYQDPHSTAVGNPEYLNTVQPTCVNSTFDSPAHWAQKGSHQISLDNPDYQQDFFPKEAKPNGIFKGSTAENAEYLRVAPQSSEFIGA
Procedure: as §1, §2, §3

[4] = biological target: HER2 wild type Ba/F3 cell line (Homo sapiens, UniProt P04626); experiment: Ba/F3 cell proliferation MTS assay, HER2 wild type; settings: HER2 wild type Ba/F3 cells, 72 hours
Chain of HER2 wild type Ba/F3 cell line (P04626 whole entry, stated change not applied): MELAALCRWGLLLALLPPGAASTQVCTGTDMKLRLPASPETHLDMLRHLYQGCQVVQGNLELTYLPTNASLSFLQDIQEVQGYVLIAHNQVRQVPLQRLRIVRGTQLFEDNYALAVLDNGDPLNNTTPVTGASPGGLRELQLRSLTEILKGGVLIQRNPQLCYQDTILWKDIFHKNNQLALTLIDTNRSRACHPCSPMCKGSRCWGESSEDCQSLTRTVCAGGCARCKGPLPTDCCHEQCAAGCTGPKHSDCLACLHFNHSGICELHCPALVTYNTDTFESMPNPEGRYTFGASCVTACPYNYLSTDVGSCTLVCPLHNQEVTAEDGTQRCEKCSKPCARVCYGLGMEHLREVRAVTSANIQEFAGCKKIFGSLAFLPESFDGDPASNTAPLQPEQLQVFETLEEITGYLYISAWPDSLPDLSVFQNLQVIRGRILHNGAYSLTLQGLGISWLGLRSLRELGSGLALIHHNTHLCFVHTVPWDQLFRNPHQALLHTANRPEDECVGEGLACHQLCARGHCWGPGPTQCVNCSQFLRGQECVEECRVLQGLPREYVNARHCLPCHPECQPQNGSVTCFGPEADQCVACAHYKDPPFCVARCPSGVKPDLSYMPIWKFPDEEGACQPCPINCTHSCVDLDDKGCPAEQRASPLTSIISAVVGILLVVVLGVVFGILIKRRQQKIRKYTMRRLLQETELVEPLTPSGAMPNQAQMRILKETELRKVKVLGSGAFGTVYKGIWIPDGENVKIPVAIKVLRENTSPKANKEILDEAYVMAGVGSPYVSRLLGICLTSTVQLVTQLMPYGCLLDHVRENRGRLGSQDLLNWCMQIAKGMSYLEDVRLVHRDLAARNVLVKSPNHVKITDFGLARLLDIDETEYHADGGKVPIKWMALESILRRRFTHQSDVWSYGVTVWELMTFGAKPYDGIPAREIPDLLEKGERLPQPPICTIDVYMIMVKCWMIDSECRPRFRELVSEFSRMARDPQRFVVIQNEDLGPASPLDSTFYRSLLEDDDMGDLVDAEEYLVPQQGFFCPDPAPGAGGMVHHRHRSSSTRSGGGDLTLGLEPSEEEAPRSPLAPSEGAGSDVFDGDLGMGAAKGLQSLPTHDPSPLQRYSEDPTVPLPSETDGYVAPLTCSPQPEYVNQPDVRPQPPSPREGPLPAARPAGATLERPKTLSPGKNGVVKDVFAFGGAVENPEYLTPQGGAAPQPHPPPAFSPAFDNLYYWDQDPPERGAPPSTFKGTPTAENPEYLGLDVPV
Procedure: as §2, §3

[5] = biological target: HER2 InsYVMA Ba/F3 cell line (Homo sapiens, UniProt P04626, DUP772-775, cells depend on it); experiment: Ba/F3 cell proliferation MTS assay, HER2 InsYVMA; settings: 72 hours;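 also: murine Ba/F3 cells engineered to carry mutant HER2, viability read colorimetrically by MTS after 72 h of exposure, EC50 from sigmoidal non-linear regression of dose response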
Chain of HER2 InsYVMA Ba/F3 cell line (P04626 with tags, fused parts or gaps DUP772-775): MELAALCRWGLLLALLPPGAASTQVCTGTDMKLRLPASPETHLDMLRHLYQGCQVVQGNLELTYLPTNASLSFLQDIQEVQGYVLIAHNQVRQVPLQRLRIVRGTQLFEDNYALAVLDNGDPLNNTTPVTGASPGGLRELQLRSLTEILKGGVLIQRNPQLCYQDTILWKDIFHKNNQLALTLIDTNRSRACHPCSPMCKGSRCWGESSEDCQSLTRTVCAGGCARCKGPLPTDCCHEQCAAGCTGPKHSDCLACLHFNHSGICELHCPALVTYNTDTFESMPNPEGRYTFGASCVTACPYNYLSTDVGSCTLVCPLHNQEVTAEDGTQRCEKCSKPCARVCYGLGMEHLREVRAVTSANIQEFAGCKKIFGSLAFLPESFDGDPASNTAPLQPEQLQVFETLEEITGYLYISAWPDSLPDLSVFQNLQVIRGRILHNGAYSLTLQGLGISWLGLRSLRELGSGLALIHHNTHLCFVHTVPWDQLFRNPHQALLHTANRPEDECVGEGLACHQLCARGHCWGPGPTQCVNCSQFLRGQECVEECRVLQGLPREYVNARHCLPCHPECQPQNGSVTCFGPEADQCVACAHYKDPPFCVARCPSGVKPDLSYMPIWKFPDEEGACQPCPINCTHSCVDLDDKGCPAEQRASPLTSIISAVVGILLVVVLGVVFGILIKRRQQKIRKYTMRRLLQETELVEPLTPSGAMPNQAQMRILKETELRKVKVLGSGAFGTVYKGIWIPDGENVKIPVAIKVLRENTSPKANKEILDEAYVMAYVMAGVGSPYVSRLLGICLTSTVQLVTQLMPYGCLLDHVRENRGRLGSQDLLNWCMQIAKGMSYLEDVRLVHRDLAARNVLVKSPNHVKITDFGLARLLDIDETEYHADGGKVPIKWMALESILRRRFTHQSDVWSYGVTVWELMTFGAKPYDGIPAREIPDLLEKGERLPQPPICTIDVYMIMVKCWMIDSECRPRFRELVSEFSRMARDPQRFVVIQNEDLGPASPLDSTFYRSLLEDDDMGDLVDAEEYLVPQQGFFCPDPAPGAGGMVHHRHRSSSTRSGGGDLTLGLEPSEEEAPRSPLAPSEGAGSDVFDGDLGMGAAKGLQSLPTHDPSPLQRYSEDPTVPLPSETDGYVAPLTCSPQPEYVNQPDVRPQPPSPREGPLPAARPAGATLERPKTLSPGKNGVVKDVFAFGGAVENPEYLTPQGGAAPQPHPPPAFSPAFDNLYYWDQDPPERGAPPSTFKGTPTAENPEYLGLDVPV
Procedure: as §2, §3

Chain of EGFR wild type Ba/F3 cell line (P00533 whole entry, stated change not applied): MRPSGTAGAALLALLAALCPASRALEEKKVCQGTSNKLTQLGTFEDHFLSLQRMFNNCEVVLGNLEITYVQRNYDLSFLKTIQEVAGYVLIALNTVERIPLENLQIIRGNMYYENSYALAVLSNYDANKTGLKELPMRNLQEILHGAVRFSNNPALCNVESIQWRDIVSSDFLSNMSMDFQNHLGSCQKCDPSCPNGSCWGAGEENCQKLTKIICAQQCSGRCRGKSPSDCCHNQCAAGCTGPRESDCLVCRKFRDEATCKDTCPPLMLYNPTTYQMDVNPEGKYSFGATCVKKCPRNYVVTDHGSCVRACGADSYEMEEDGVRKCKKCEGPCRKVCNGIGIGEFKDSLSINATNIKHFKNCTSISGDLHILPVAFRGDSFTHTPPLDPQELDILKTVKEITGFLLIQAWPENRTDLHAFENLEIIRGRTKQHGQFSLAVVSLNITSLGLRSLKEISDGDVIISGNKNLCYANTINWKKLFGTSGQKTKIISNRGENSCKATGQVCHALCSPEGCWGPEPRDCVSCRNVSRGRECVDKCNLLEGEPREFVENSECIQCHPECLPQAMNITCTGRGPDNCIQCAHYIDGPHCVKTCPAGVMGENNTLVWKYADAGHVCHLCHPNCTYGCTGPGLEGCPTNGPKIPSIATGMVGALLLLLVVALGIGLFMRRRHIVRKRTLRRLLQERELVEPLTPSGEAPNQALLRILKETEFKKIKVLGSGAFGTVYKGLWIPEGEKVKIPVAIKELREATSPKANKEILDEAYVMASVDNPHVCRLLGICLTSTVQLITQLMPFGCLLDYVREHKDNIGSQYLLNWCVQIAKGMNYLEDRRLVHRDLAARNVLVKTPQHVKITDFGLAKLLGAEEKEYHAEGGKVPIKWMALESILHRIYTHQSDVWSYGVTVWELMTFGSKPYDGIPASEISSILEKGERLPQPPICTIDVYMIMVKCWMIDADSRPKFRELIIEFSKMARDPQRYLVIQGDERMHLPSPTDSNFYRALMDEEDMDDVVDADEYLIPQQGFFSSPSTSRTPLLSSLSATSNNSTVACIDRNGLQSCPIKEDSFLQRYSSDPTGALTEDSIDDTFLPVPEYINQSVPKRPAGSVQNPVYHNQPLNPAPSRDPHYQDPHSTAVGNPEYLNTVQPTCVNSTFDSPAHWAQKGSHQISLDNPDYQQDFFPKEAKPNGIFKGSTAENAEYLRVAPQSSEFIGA

SMILES	EC50 [1]	EC50 [2]	EC50 [3]	EC50 [4]	EC50 [5]
C=CC(=O)Nc1cccc(N(C(=O)OCc2cc3ccccc3s2)c2ccnc(Nc3cnn(C)c3)n2)c1 [Compound I-7, benzo[b]thiophen-2-ylmethyl (3-acrylamidophenyl)(2-((1-methyl-1H-pyrazol-4-yl)amino)pyrimidin-4-yl)carbamate]	100 to 500 nM	< 100 nM	100 to 500 nM	100 to 500 nM	500 to 1000 nM
Cn1cc(Nc2nccc(N(C(=O)OCc3ccc(F)cc3)c3cccc(NC(=O)/C=C/CN4CCC(O)CC4)c3)n2)cn1 [Compound I-25, 4-fluorobenzyl (E)-(3-(4-(4-hydroxypiperidin-1-yl)but-2-enamido)phenyl)(2-((1-methyl-1H-pyrazol-4-yl)amino)pyrimidin-4-yl)carbamate]	100 to 500 nM	–	–	100 to 500 nM	> 1000 nM
C=CC(=O)Nc1cccc(N(C(=O)OCc2csc3ccccc23)c2ccnc(Nc3ccn(C)n3)n2)c1 [Compound I-18, benzo[b]thiophen-3-ylmethyl (3-acrylamidophenyl)(2-((1-methyl-1H-pyrazol-3-yl)amino)pyrimidin-4-yl)carbamate]	> 1000 nM	> 1000 nM	–	> 1000 nM	–
Cn1cc(Nc2nccc(N(C(=O)OCc3ccc(F)cc3)c3cccc(NC(=O)/C=C/CN4CCCCC4)c3)n2)cn1 [Compound I-24, 4-fluorobenzyl (E)-(2-((1-methyl-1H-pyrazol-4-yl)amino)pyrimidin-4-yl)(3-(4-(piperidin-1-yl)but-2-enamido)phenyl)carbamate]	< 100 nM	100 to 500 nM	500 to 1000 nM	< 100 nM	< 100 nM
C=CC(=O)Nc1cccc(N(C(=O)OCc2cccc(F)c2)c2ccnc(Nc3ccn(C)n3)n2)c1 [Compound I-2, 3-fluorobenzyl (3-acrylamidophenyl)(2-((1-methyl-1H-pyrazol-3-yl)amino)pyrimidin-4-yl)carbamate]	< 100 nM	< 100 nM	< 100 nM	< 100 nM	100 to 500 nM
C=CC(=O)Nc1cccc(N(C(=O)OCc2ccc(F)cc2)c2ccnc(Nc3cnn(C4CCN(C)C4)c3)n2)c1 (centres unmarked) [Compound I-32, 4-fluorobenzyl (3-acrylamidophenyl)(2-((1-(1-methylpyrrolidin-3-yl)-1H-pyrazol-4-yl)amino)pyrimidin-4-yl)carbamate]	< 100 nM	< 100 nM	< 100 nM	< 100 nM	< 100 nM
C=CC(=O)Nc1cccc(N(C(=O)OCc2cc3ccccc3s2)c2ccnc(Nc3ccn(C)n3)n2)c1 [Compound I-6, benzo[b]thiophen-2-ylmethyl (3-acrylamidophenyl)(2-((1-methyl-1H-pyrazol-3-yl)amino)pyrimidin-4-yl)carbamate]	500 to 1000 nM	100 to 500 nM	500 to 1000 nM	500 to 1000 nM	> 1000 nM
Cn1cc(Nc2nccc(N(C(=O)OCc3ccc(F)cc3)c3cccc(NC(=O)/C=C/CN4CCOCC4)c3)n2)cn1 [Compound I-26, 4-fluorobenzyl (E)-(2-((1-methyl-1H-pyrazol-4-yl)amino)pyrimidin-4-yl)(3-(4-morpholinobut-2-enamido)phenyl)carbamate]	< 100 nM	100 to 500 nM	500 to 1000 nM	< 100 nM	100 to 500 nM
C=CC(=O)Nc1cccc(N(C(=O)OCc2ccc(F)cc2)c2ccnc(Nc3ccn(C)n3)n2)c1 [Compound I-4, 4-fluorobenzyl (3-acrylamidophenyl)(2-((1-methyl-1H-pyrazol-3-yl)amino)pyrimidin-4-yl)carbamate]	< 100 nM	< 100 nM	< 100 nM	< 100 nM	< 100 nM
C=CC(=O)Nc1cccc(N(C(=O)OCc2ccc(F)cc2)c2ccnc(Nc3cnn(C)c3C)n2)c1 [Compound I-22, 4-fluorobenzyl (3-acrylamidophenyl)(2-((1,5-dimethyl-1H-pyrazol-4-yl)amino)pyrimidin-4-yl)carbamate]	< 100 nM	< 100 nM	< 100 nM	< 100 nM	< 100 nM

Next, values leading:

EC50 [1]	EC50 [2]	EC50 [3]	EC50 [4]	EC50 [5]	SMILES
< 100 nM	500 to 1000 nM	500 to 1000 nM	< 100 nM	< 100 nM	Cn1cc(Nc2nccc(N(C(=O)OCc3ccc(F)cc3)c3cccc(NC(=O)/C=C/CN4CCCCCC4)c3)n2)cn1 [Compound I-27, 4-fluorobenzyl (E)-(3-(4-(azepan-1-yl)but-2-enamido)phenyl)(2-((1-methyl-1H-pyrazol-4-yl)amino)pyrimidin-4-yl)carbamate]
< 100 nM	< 100 nM	< 100 nM	< 100 nM	< 100 nM	C=CC(=O)Nc1cccc(N(C(=O)OCc2cccc(F)c2)c2ccnc(Nc3cnn(C)c3)n2)c1 [Compound I-3, 3-fluorobenzyl (3-acrylamidophenyl)(2-((1-methyl-1H-pyrazol-4-yl)amino)pyrimidin-4-yl)carbamate]
< 100 nM	< 100 nM	< 100 nM	< 100 nM	< 100 nM	C=CC(=O)Nc1cccc(N(C(=O)OCc2ccc(F)cc2)c2ccnc(Nc3cnn(C4CCN(C)CC4)c3)n2)c1 [Compound I-30, 4-fluorobenzyl (3-acrylamidophenyl)(2-((1-(1-methylpiperidin-4-yl)-1H-pyrazol-4-yl)amino)pyrimidin-4-yl)carbamate]
< 100 nM	100 to 500 nM	100 to 500 nM	< 100 nM	< 100 nM	C=CC(=O)Nc1cccc(N(C(=O)OCc2ccc(F)cc2)c2ccnc(Nc3cnn(CC(=O)NC)c3)n2)c1 [Compound I-31, 4-fluorobenzyl (3-acrylamidophenyl)(2-((1-(2-(methylamino)-2-oxoethyl)-1H-pyrazol-4-yl)amino)pyrimidin-4-yl)carbamate]
< 100 nM	500 to 1000 nM	> 1000 nM	< 100 nM	< 100 nM	CN(C)C/C=C/C(=O)Nc1cccc(N(C(=O)OCc2ccc(F)cc2)c2ccnc(Nc3cnn(C)c3)n2)c1 [Compound I-28, 4-fluorobenzyl (E)-(3-(4-(dimethylamino)but-2-enamido)phenyl)(2-((1-methyl-1H-pyrazol-4-yl)amino)pyrimidin-4-yl)carbamate]
< 100 nM	< 100 nM	< 100 nM	< 100 nM	< 100 nM	C=CC(=O)Nc1cccc(N(C(=O)OCc2ccc(F)cc2)c2ccnc(Nc3cnn(C)c3)n2)c1 [Compound I-5, 4-fluorobenzyl (3-acrylamidophenyl)(2-((1-methyl-1H-pyrazol-4-yl)amino)pyrimidin-4-yl)carbamate]
< 100 nM	100 to 500 nM	100 to 500 nM	< 100 nM	100 to 500 nM	C=CC(=O)Nc1cccc(N(C(=O)OCc2ccc(F)cc2)c2ccnc(Nc3cnn(C)c3C(F)(F)F)n2)c1 [Compound I-23, 4-fluorobenzyl (3-acrylamidophenyl)(2-((1-methyl-5-(trifluoromethyl)-1H-pyrazol-4-yl)amino)pyrimidin-4-yl)carbamate]
< 100 nM	< 100 nM	100 to 500 nM	< 100 nM	< 100 nM	C=CC(=O)Nc1cccc(N(C(=O)OCc2ccc(F)cc2)c2ccnc(Nc3cnn(CCN4CCOCC4)c3)n2)c1 [Compound I-20, 4-fluorobenzyl (3-acrylamidophenyl)(2-((1-(2-morpholinoethyl)-1H-pyrazol-4-yl)amino)pyrimidin-4-yl)carbamate]
